This note sets out measurements from patent US5079263A, “Manumycin derivatives and the use thereof” (Behringwerke Aktiengesellschaft, priority 1987, dated 1992).

For this assay, the target named is T1, PMN elastase (Homo sapiens, UniProt P08246).
T1 construct: The elastase was isolated from human leukocytes; from tissue; host or cells: human leukocytes
T1 sequence (P08246 30-247 limits assumed): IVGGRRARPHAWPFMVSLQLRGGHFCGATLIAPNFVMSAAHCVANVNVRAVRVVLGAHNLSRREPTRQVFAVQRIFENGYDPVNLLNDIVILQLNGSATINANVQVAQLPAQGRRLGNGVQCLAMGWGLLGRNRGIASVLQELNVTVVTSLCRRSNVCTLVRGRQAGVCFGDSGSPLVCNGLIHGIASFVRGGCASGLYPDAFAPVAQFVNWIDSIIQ
Nature of the assay: Assay for Elastase from Polymorphonuclear Granulocytes (PMN Elastase). The conditions noted are these: for IC50: 1 hour preincubation with enzyme, substrate MeO-Suc-Ala-Ala-Pro-Val-pNA, 15 minutes, 405 nm, maximum 100 μg/ml, read-out: IC50 (inhibiting effect on PMN elastase) (converted); for inhibiting effect on PMN elastase, comparison in words: compared with manumycin / compounds (1) to (3). Set-up: key to inhibiting effect in PMN elastase assay (inactive): Substances which showed no inhibiting effect at the maximum concentration of 100 μg/ml were defined as inactive. Type of assay: biochemical. On the procedure:
The elastase was isolated from human leukocytes by the method described by Engelbrecht et al. (Hoppe-Seyler's Physiol. Chem. 363, pp. 305-315, 1982). The substrate used was the MeO-Suc-[…] (Calbiochem) described by Nakajima et al. (J. Biol. Chem. 254, pp. 4027-4032, 1979). The Liberation of the p-nitroaniline from the substrate in 15 minutes was measured as the increase in absorption at 405 nm in a spectrophotometer. This absorption was defined as 100% activity of the enzyme PMN elastase. The inhibitors of PMN elastase were preincubated in increasing concentrations up to a maximum of 100 μg/ml with the enzyme for 1 hour, and the enzyme reaction was started with the substrate. The IC50 was defined as that inhibitor concentration which inhibits 50% of the enzyme activity.

As usually defined, the IC50 is the midpoint of a concentration-inhibition curve. For the compound `CCCC[C@@H](C)/C=C(C)/C=C(\C)C(=O)Nc1cc(/C=C/C=C/C=C/C(=O)NC2=C(O)CCC2=O)c(O)cc1O` [Compound (1)], the “inhibition of leukocyte elastase, in words” value was “inhibit leukocyte elastase” and the IC50 is 4.68 µM.
The matching figures for `CCCC[C@@H](C)/C=C(C)/C=C(\C)C(=O)Nc1cc(/C=C/C=C/C=C/C(=O)NC2=C(O)CCC2=O)ccc1O` [Compound (2)]: “inhibit leukocyte elastase” and 5.98 µM.
The matching figures for `CCCC[C@@H](C)/C=C(C)/C=C(\C)C(=O)Nc1cccc(/C=C/C=C/C=C/C(=O)NC2=C(O)CCC2=O)c1` [Compound (3)]: “inhibit leukocyte elastase” and 7.16 µM.
For `Nc1cccc(/C=C/C=C/C=C/C(=O)NC2=C(O)CCC2=O)c1` [Compound (4)], the “inhibiting effect in PMN elastase assay (inactive)” value (maximum concentration 100 μg/ml, "--" in Table 2) is “inactive”.
As to `Nc1ccc(/C=C/C=C/C=C/C(=O)NC2=C(O)CCC2=O)cc1` [Compound (5)], the “inhibition of leukocyte elastase, in words” value is listed as “inhibit leukocyte elastase”; the IC50 is 135 µM; the “inhibiting effect on PMN elastase, comparison in words” value is recorded as “distinctly weaker inhibiting effect”.
In the case of `CCCCC(C)C=C(C)C=C(C)C(=O)NC1=CC(O)(C=CC=CC=CC(=O)NC2=C(O)CCC2=O)C2OC2C1=O` (stereo not drawn) [Manumycin, manumycin], the IC50 was 7.99 µM and the “inhibiting effect on PMN elastase, comparison in words” value is given as “comparable to that of the compounds (1) to (3)”.
